Assay results reported in the NIST ThermoML archive (doi:10.1016/j.jct.2006.08.009).

Experiment: mn = molality of the nth substance listed, in mol/kg
Details: 350 kPa, Liquid; for apparent molar heat capacity: Extra sensitive DSC

OCC(O)CO [glycerol] + O
Details	apparent molar heat capacity [J/K/mol]	mass density [kg/m3]
278.15 K, m1 = 0.02	210	1000.56
278.15 K, m1 = 0.05	208	1001.19
278.15 K, m1 = 0.1	208.3	1002.32
278.15 K, m1 = 0.2501	206.7	1005.96
278.15 K, m1 = 0.5002	206	1011.28
278.15 K, m1 = 1.001	203.2	1021.37
278.15 K, m1 = 2	200	1040.06
278.15 K, m1 = 3.003	192.1	1056.11
278.15 K, m1 = 4.999	196.4	1082.51
283.15 K, m1 = 0.02	220	1000.32
283.15 K, m1 = 0.05	219	1000.93
283.15 K, m1 = 0.1	219.7	1002.05
283.15 K, m1 = 0.2501	218.3	1005.34
283.15 K, m1 = 0.5002	217.4	1010.56
283.15 K, m1 = 1.001	215.1	1020.54
283.15 K, m1 = 2	212.1	1038.67
283.15 K, m1 = 3.003	206.8	1054.65
283.15 K, m1 = 4.999	207.4	1080.68
288.15 K, m1 = 0.02	229	999.7
288.15 K, m1 = 0.05	227	1000.3
288.15 K, m1 = 0.1	227.7	1001.41
288.15 K, m1 = 0.2501	226.4	1004.63
288.15 K, m1 = 0.5002	225.6	1009.79
288.15 K, m1 = 1.001	223.5	1019.64
288.15 K, m1 = 2	220.6	1037.48
288.15 K, m1 = 3.003	215.7	1053.13
288.15 K, m1 = 4.999	215.28	1078.92
293.15 K, m1 = 0.02	235	–
293.15 K, m1 = 0.05	233	–
293.15 K, m1 = 0.1	234	–
293.15 K, m1 = 0.2501	233	–
293.15 K, m1 = 0.5002	232.3	–
293.15 K, m1 = 1.001	230.4	–
293.15 K, m1 = 2	227.5	–
293.15 K, m1 = 3.003	222.75	–
293.15 K, m1 = 4.999	221.83	–
298.15 K, m1 = 0.02	240	997.59
298.15 K, m1 = 0.05	239	998.2
298.15 K, m1 = 0.1	239.7	999.29
298.15 K, m1 = 0.2501	238.6	1002.43
298.15 K, m1 = 0.5002	238	1007.48
298.15 K, m1 = 1.001	236.1	1017.07
298.15 K, m1 = 2	233.27	1034.46
298.15 K, m1 = 3.003	228.47	1049.73
298.15 K, m1 = 4.999	227.35	1074.96
303.15 K, m1 = 0.02	245	–
303.15 K, m1 = 0.05	244	–
303.15 K, m1 = 0.1	244.7	–
303.15 K, m1 = 0.2501	243.6	–
303.15 K, m1 = 0.5002	243	–
303.15 K, m1 = 1.001	241.1	–
303.15 K, m1 = 2	238.33	–
303.15 K, m1 = 3.003	233.46	–
303.15 K, m1 = 4.999	232.27	–
308.15 K, m1 = 0.02	249	994.55
308.15 K, m1 = 0.05	248.4	995.16
308.15 K, m1 = 0.1	249	996.23
308.15 K, m1 = 0.2501	247.9	999.33
308.15 K, m1 = 0.5002	247.4	1004.29
308.15 K, m1 = 1.001	245.5	1013.67
308.15 K, m1 = 2	242.76	1030.71
308.15 K, m1 = 3.003	237.83	1045.67
308.15 K, m1 = 4.999	236.6	1070.41
313.15 K, m1 = 0.02	253	–
313.15 K, m1 = 0.05	252.1	–
313.15 K, m1 = 0.1	252.9	–
313.15 K, m1 = 0.2501	251.9	–
313.15 K, m1 = 0.5002	251.3	–
313.15 K, m1 = 1.001	249.4	–
313.15 K, m1 = 2	246.75	–
313.15 K, m1 = 3.003	241.83	–
313.15 K, m1 = 4.999	240.56	–
318.15 K, m1 = 0.02	257	990.73
318.15 K, m1 = 0.05	255.7	991.32
318.15 K, m1 = 0.1	256.3	992.37
318.15 K, m1 = 0.2501	255.4	995.42
318.15 K, m1 = 0.5002	254.8	1000.34
318.15 K, m1 = 1.001	252.98	1009.55
318.15 K, m1 = 2	250.33	1026.3
318.15 K, m1 = 3.003	245.4	1041.09
318.15 K, m1 = 4.999	244.12	1065.4
323.15 K, m1 = 0.02	260	–
323.15 K, m1 = 0.05	258.8	–
323.15 K, m1 = 0.1	259.4	–
323.15 K, m1 = 0.2501	258.6	–
323.15 K, m1 = 0.5002	258	–
323.15 K, m1 = 1.001	256.23	–
323.15 K, m1 = 2	253.61	–
323.15 K, m1 = 3.003	248.72	–
323.15 K, m1 = 4.999	247.42	–
328.15 K, m1 = 0.02	263	986.19
328.15 K, m1 = 0.05	261.7	986.78
328.15 K, m1 = 0.1	262.3	987.77
328.15 K, m1 = 0.2501	261.5	990.83
328.15 K, m1 = 0.5002	261	995.67
328.15 K, m1 = 1.001	259.22	1004.79
328.15 K, m1 = 2	256.62	1021.31
328.15 K, m1 = 3.003	251.8	1035.9
328.15 K, m1 = 4.999	250.48	1059.9
333.15 K, m1 = 0.02	266	–
333.15 K, m1 = 0.05	264.5	–
333.15 K, m1 = 0.1	265	–
333.15 K, m1 = 0.2501	264.3	–
333.15 K, m1 = 0.5002	263.72	–
333.15 K, m1 = 1.001	262	–
333.15 K, m1 = 2	259.44	–
333.15 K, m1 = 3.003	254.69	–
333.15 K, m1 = 4.999	253.36	–
338.15 K, m1 = 0.02	268.5	981.05
338.15 K, m1 = 0.05	267	981.63
338.15 K, m1 = 0.1	267.6	982.65
338.15 K, m1 = 0.2501	266.8	985.63
338.15 K, m1 = 0.5002	266.28	990.4
338.15 K, m1 = 1.001	264.6	999.46
338.15 K, m1 = 2	262.07	1015.84
338.15 K, m1 = 3.003	257.43	1030.29
338.15 K, m1 = 4.999	256.04	1054
343.15 K, m1 = 0.02	270.6	–
343.15 K, m1 = 0.05	269.2	–
343.15 K, m1 = 0.1	269.8	–
343.15 K, m1 = 0.2501	269.15	–
343.15 K, m1 = 0.5002	268.63	–
343.15 K, m1 = 1.001	266.97	–
343.15 K, m1 = 2	264.48	–
343.15 K, m1 = 3.003	259.94	–
343.15 K, m1 = 4.999	258.51	–
348.15 K, m1 = 0.02	272.9	975.36
348.15 K, m1 = 0.05	271.3	975.93
348.15 K, m1 = 0.1	271.9	976.93
348.15 K, m1 = 0.2501	271.31	979.9
348.15 K, m1 = 0.5002	270.82	984.63
348.15 K, m1 = 1.001	269.16	993.59
348.15 K, m1 = 2	266.71	1009.84
348.15 K, m1 = 3.003	262.29	1024.18
348.15 K, m1 = 4.999	260.82	1047.69
353.15 K, m1 = 0.02	274.8	–
353.15 K, m1 = 0.05	273.1	–
353.15 K, m1 = 0.1	273.9	–
353.15 K, m1 = 0.2501	273.26	–
353.15 K, m1 = 0.5002	272.82	–
353.15 K, m1 = 1.001	271.17	–
353.15 K, m1 = 2	268.75	–
353.15 K, m1 = 3.003	264.53	–
353.15 K, m1 = 4.999	262.96	–
358.15 K, m1 = 0.02	276.3	969.12
358.15 K, m1 = 0.05	274.7	969.7
358.15 K, m1 = 0.1	275.6	970.69
358.15 K, m1 = 0.2501	274.92	973.64
358.15 K, m1 = 0.5002	274.47	978.33
358.15 K, m1 = 1.001	272.82	987.24
358.15 K, m1 = 2	270.44	1003.38
358.15 K, m1 = 3.003	266.6	1017.63
358.15 K, m1 = 4.999	264.75	1041.02
363.15 K, m1 = 0.02	277.1	–
363.15 K, m1 = 0.05	275.5	–
363.15 K, m1 = 0.1	276.5	–
363.15 K, m1 = 0.2501	275.65	–
363.15 K, m1 = 0.5002	275.17	–
363.15 K, m1 = 1.001	273.45	–
363.15 K, m1 = 2	271.04	–
363.15 K, m1 = 3.003	268.61	–
363.15 K, m1 = 4.999	265.49	–
368.15 K, m1 = 0.02	–	962.42
368.15 K, m1 = 0.05	–	963
368.15 K, m1 = 0.1	–	963.94
368.15 K, m1 = 0.2501	–	966.88
368.15 K, m1 = 0.5002	–	971.55
368.15 K, m1 = 1.001	–	980.42
368.15 K, m1 = 2	–	996.47
368.15 K, m1 = 3.003	–	1010.68
368.15 K, m1 = 4.999	–	1033.93
